Experimental data published in ChEMBL document CHEMBL6115028, “An Amazing 30-Year Journey around the DABO Family: A Medicinal Chemistry Lesson on a Versatile Class of Non-nucleoside HIV-1 Reverse Transcriptase Inhibitors” (J Med Chem, 2025).

Tests used:
[1] = tested on: Human immunodeficiency virus 1; assay: Antiviral activity against HIV-1 NL4-3 infected in human MT2 cells assessed as reduction in viral replication assessed as inhibition of viral growth incubated for 72 hrs by ELISA; type: functional, organism-based; conditions: Human immunodeficiency virus 1, NL4-3, MT2, 72 h
[2] = Selectivity index, ratio of CC50 for human MT4 cells to EC50 for antiviral activity against HIV1 infected in human MT4 cells; type: toxicity, cell-based; conditions: read-out: Ratio CC50/EC50
[3] = tested on: Human immunodeficiency virus 1; assay: Antiviral activity against HIV1 IIIB infected in human MT4 cells assessed as reduction in virus-induced cytopathic effect incubated for 4 days by MTT assay; type: functional, organism-based; conditions: Human immunodeficiency virus 1, IIIB, MT4, 96 h
[4] = tested on: Human immunodeficiency virus 1; assay: Antiviral activity against HIV-1 IIIB infected in human C8166 cells assessed as reduction in virus -induced cytopathic effect measured after 48 hrs by CellTiter-Glo Luminescent cell viability assay; type: functional, organism-based; conditions: Human immunodeficiency virus 1, IIIB, C8166, 48 h
[5] = tested on: C8166; assay: Cytotoxicity against human C8166 cells assessed as reduction in cell viability; type: functional
[6] = Selectivity index, ratio of CC50 for cytotoxicity against human MT2 cells to EC50 for antiviral activity against HIV-1 IIIB infected in human MT2 cells; type: toxicity, cell-based; conditions: read-out: Ratio CC50/EC50
[7] = Cytotoxicity against african green monkey Vero cells assessed as reduction in cell viability measured after 72 hrs by MTT assay; type: toxicity, cell-based; conditions: chlorocebus sabaeus
[8] = tested on: Human immunodeficiency virus 1; assay: Antiviral activity against HIV-1 IIIB infected in human C8166 cells; type: functional, organism-based; conditions: Human immunodeficiency virus 1, IIIB
[9] = tested on: Human immunodeficiency virus 2; assay: Antiviral activity against HIV-2 ROD infected in human MT4 cells assessed as virus-induced cytopathic effect incubated for 5 days by MTT assay; type: functional, organism-based; conditions: Human immunodeficiency virus 2, ROD, MT4, 120 h
[10] = tested on: MT4; assay: Cytotoxicity against human MT4 cells assessed as reduction in cell growth incubated for 3 days by CellTiter-Glo luminescent assay; type: functional; conditions: MT4, 72 h, time 3 day
[11] = tested on: Human immunodeficiency virus 1; assay: Antiviral activity against wild type HIV-1 NL4-3 infected in human MT4 cells assessed as reduction in viral replication measured for 72 hrs by ELISA analysis; type: functional, organism-based; conditions: Human immunodeficiency virus 1, NL4-3, MT4, 72 h
[12] = tested on: Human immunodeficiency virus 1; assay: Antiviral activity against HIV-1 NL4-3 harboring infected K103N mutant infected in human MT4 cells assessed as reduction in viral replication; type: functional, organism-based; conditions: Human immunodeficiency virus 1, NL4-3, MT4
[13] = tested on: Human immunodeficiency virus 1; assay: Antiviral activity against wild-type HIV-1 IIIB infected in human MT4 cells assessed as reduction in virus-induced cytopathic effect incubated for 5 days by MTT assay; type: functional, organism-based; conditions: Human immunodeficiency virus 1, IIIB, MT4, 120 h
[14] = tested on: MT4; assay: Cytotoxicity against human MT4 cells assessed as reduction in cell growth after 5 days by MTT assay; type: functional; conditions: MT4, 120 h, time 5 day
[15] = tested on: MT4; assay: Cytotoxicity against human MT4 cells; type: functional
[16] = tested on: Human immunodeficiency virus 1; assay: Antiviral activity against wild type HIV-1 NL4-3 infected in human MT4 cells assessed as reduction in viral replication; type: functional, organism-based; conditions: Human immunodeficiency virus 1, NL4-3, MT4
[17] = tested on: Human immunodeficiency virus 1; assay: Antiviral activity against HIV-1 NL4-3 harboring infected Y181C mutant infected in human MT4 cells assessed as reduction in viral replication; type: functional, organism-based; conditions: Human immunodeficiency virus 1, NL4-3, MT4
[18] = read-out: ED50 (the source's name)

CCC(C)Sc1nc(O)c(C)c(Cc2ccccc2)n1 (stereo unspecified)
EC50 [1]: 200 nM

Cc1c(O)nc(SC2CCCCC2)nc1Cc1ccccc1
selectivity ratio [2]: > 530 | EC50 [3]: 600 nM

CCC(C)Sc1nc(O)cc(Cc2ccccc2)n1 (stereo unspecified)
EC50 [1]: 80 nM

CCC(C)Sc1nc(O)cc(Cc2cccc(C)c2)n1 (stereo unspecified)
selectivity ratio [2]: > 578 | EC50 [3]: 600 nM

Cc1c(O)nc(SC2CCCC2)nc1Cc1ccccc1
selectivity ratio [2]: > 555 | EC50 [3]: 800 nM

Oc1cc(Cc2ccccc2)nc(SC2CCCCC2)n1
selectivity ratio [2]: > 412 | EC50 [3]: 800 nM

CCC(C)Sc1nc(O)cc(Cc2c(Cl)cccc2Cl)n1 (stereo unspecified)
EC50 [4]: 140 nM | CC50 [5]: > 200000 nM | selectivity ratio [6]: > 1430 | CC50 at 72 h [7]: > 200000 nM

CCC(C)Sc1nc(O)c(C)c(Cc2c(Cl)cccc2Cl)n1 (stereo unspecified)
EC50 [4]: 50 nM | CC50 [5]: > 200000 nM | selectivity ratio [6]: > 4000 | CC50 at 72 h [7]: > 200000 nM

CCc1c(Cc2ccccc2)nc(SCC(=O)c2ccc(OC)cc2)[nH]c1=O
EC50 [8]: 45 nM | EC50 [9]: 18900 nM | CC50 [10]: 178000 nM

COc1ccc(C(=O)CSc2nc(Cc3ccccc3)c(C(C)C)c(=O)[nH]2)cc1
EC50 [8]: 30 nM | EC50 [9]: 13400 nM | CC50 [10]: 203000 nM

COc1ccc(/C=C/CSc2nc(C(C)c3c(F)cccc3F)c(C)c(=O)[nH]2)cc1 (stereo unspecified)
EC50 [11]: 2 nM

CCc1c(C(C)c2c(F)cccc2F)nc(SC/C=C/c2ccc(OC)cc2)[nH]c1=O (stereo unspecified)
EC50 [11]: 2 nM

CCc1c(C(C)c2c(F)cccc2F)nc(SC/C=C/c2ccc([N+](=O)[O-])cc2)[nH]c1=O (stereo unspecified)
EC50 [11]: 4 nM

COc1ccc(CSc2nc(C(C)c3c(Cl)cccc3Cl)c(C)c(=O)[nH]2)cc1 (stereo unspecified)
EC50 [11]: 1 nM | EC50 [12]: 5720 nM

COc1ccc(CSc2nc(C(C)c3c(F)cccc3F)c(C)c(=O)[nH]2)cc1 (stereo unspecified)
EC50 [11]: 2 nM

Cc1c(C(C)c2c(F)cccc2F)nc(SCc2ccc([N+](=O)[O-])cc2)[nH]c1=O (stereo unspecified)
EC50 [11]: 3 nM | EC50 [12]: 650 nM

Cc1c(O)nc(SCC(C)C)nc1Cc1ccccc1
selectivity ratio [2]: 162 | EC50 [3]: 800 nM

CSCSc1nc(O)c(C)c(Cc2ccccc2)n1
EC50 [1]: 1200 nM

Cc1cccc(Cc2nc(SC3CCCC3)nc(O)c2C)c1
selectivity ratio [2]: > 530 | EC50 [3]: 600 nM

CSCSc1nc(O)c(C(C)C)c(Cc2ccccc2)n1
EC50 [1]: 40 nM

CCc1c(O)nc(SCSC)nc1Cc1ccccc1
EC50 [1]: 800 nM

Cc1c(C(C)c2c(F)cccc2F)nc(SCc2ccc(C#N)cc2)[nH]c1=O (stereo unspecified)
EC50 [11]: 7 nM

Cc1c(C(C)c2c(F)cccc2F)nc(NC(C)C)[nH]c1=O (stereo unspecified)
EC50 [13]: 20 nM | CC50 [14]: > 200000 nM

Cc1c(Cc2c(Cl)cccc2Cl)nc(SCc2cn(Cc3ccc(S(N)(=O)=O)cc3)nn2)[nH]c1=O
CC50 [15]: 95500 nM

Cc1c(Cc2c(Cl)cccc2Cl)nc(SCC(=O)Nc2ccc(F)c(F)c2)[nH]c1=O
selectivity ratio [2]: > 387 | EC50 [8]: 690 nM | CC50 [10]: > 265000 nM

Cc1c(Cc2c(Cl)cccc2Cl)nc(SCC(=O)Nc2ccc(Br)cc2)[nH]c1=O
selectivity ratio [2]: > 1330 | EC50 [8]: 180 nM | CC50 [10]: > 243000 nM

Cc1c(Cc2c(Cl)cccc2Cl)nc(SCC(=O)Nc2ccc(Cl)cc2)[nH]c1=O
selectivity ratio [2]: > 836 | EC50 [8]: 320 nM | CC50 [10]: > 266000 nM

Cc1c(Cc2c(Cl)cccc2Cl)nc(SCC(=O)Nc2ccc([N+](=O)[O-])cc2)[nH]c1=O
selectivity ratio [2]: 264 | EC50 [8]: 990 nM | CC50 [10]: 45800 nM

CC(C)CCSc1nc(Cc2c(F)cccc2I)cc(=O)[nH]1
EC50 [4]: 50 nM | CC50 [5]: > 200000 nM | selectivity ratio [6]: > 4000 | CC50 at 72 h [7]: > 200000 nM

CCC(C)Sc1nc(Cc2c(F)cccc2I)cc(=O)[nH]1 (stereo unspecified)
EC50 [4]: 50 nM | CC50 [5]: > 200000 nM | selectivity ratio [6]: > 4000 | CC50 at 72 h [7]: > 200000 nM

C#CCOC(=O)[C@H](C)NP(=O)(Oc1ccccc1)Oc1nc(N(C)C)nc(C(C)c2c(F)cccc2F)c1C (stereo partly specified)
EC50 ([16]; read-out: EC50): 3 nM | EC50 [17]: 500 nM

CCOC(=O)[C@H](C)NP(=O)(Oc1ccccc1)Oc1nc(N(C)C)nc(C(C)c2c(F)cccc2F)c1C (stereo partly specified)
EC50 ([16]; read-out: EC50): 6 nM | EC50 [17]: 1000 nM

COC(=O)[C@H](C)NP(=O)(Oc1ccccc1)Oc1nc(N(C)C)nc(C(C)c2c(F)cccc2F)c1C (stereo partly specified)
EC50 ([16]; read-out: EC50): 7 nM | EC50 [17]: 1200 nM

Cc1c(OP(=O)(N[C@@H](C)C(=O)OCc2ccccc2)Oc2ccccc2)nc(N(C)C)nc1C(C)c1c(F)cccc1F (stereo partly specified)
EC50 ([16]; read-out: EC50): 10 nM | EC50 [17]: 1100 nM

CC(C)CCSc1nc(Cc2c(F)cccc2F)cc(=O)[nH]1
EC50 [4]: 50 nM | CC50 [5]: > 200000 nM | selectivity ratio [6]: > 4000 | CC50 at 72 h [7]: > 200000 nM

CCCCNc1nc(C(C)c2c(F)cccc2F)c(C)c(=O)[nH]1 (stereo unspecified)
EC50 [13]: 40 nM

COc1ccc(C(=O)CSc2nc(Cc3ccccc3)c(C)c(=O)[nH]2)cc1
EC50 [8]: 370 nM | EC50 [9]: 420 nM | CC50 [10]: > 290000 nM

Cc1c([C@H](C)c2c(F)cccc2F)nc(SC2CCCCC2)[nH]c1=O
selectivity ratio [2]: > 10000 | CC50 at 72 h [7]: > 200000 nM

CC(C)c1c(Cc2ccccc2)nc(SCC(=O)c2ccc(F)cc2)[nH]c1=O
EC50 [8]: 78 nM | EC50 [9]: 32200 nM | CC50 [10]: 186000 nM

CC(=O)c1ccc(Cn2cc(CSc3nc(Cc4c(Cl)cccc4Cl)c(C)c(=O)[nH]3)nn2)cc1
CC50 [15]: 32500 nM

CCSCSc1nc(=O)c(CC)c(Cc2cccc3ccccc23)[nH]1
EC50 [16, 18]: 2700 nM

CCCNc1nc(Cc2c(F)cccc2F)c(C)c(=O)[nH]1
EC50 [13]: 20 nM | CC50 [14]: > 200000 nM

CCc1c(Cc2ccccc2)nc(SC(C)CC)[nH]c1=O (stereo unspecified)
EC50 [1]: 40 nM

CCc1c(Cc2cccc3ccccc23)n(CSC)c(=O)[nH]c1=O
EC50 [16, 18]: 370 nM

CCC(C)Sc1nc(Cc2ccccc2)c(C(C)C)c(=O)[nH]1 (stereo unspecified)
EC50 [1]: 100 nM

Cc1c(Cc2ccccc2)nc(SCC(=O)c2ccc(F)cc2)[nH]c1=O
EC50 [8]: 180 nM | EC50 [9]: 275000 nM | CC50 [10]: 275000 nM

CSCSc1nc(Cc2ccccc2)cc(=O)[nH]1
EC50 [1]: 20000 nM

CCc1c(Cc2cccc3ccccc23)[nH]c(SCSC)nc1=O
EC50 [16, 18]: 4600 nM

CCc1c(Cc2ccccc2)nc(SCC(=O)c2ccc(F)cc2)[nH]c1=O
EC50 [8]: 70 nM | EC50 [9]: 16300 nM | CC50 [10]: 240000 nM

Cc1c(OP(=O)(N[C@@H](C)C(=O)OC(C)(C)C)Oc2ccccc2)nc(N(C)C)nc1C(C)c1c(F)cccc1F (stereo partly specified)
EC50 ([16]; read-out: EC50): 8 nM | EC50 [17]: 1000 nM

CCOCn1c(Cc2cccc3ccccc23)c(CC)c(=O)[nH]c1=O
EC50 [16, 18]: 50 nM

Cc1c(O)nc(SCC(C)C)nc1C(C)c1c(F)cccc1F (stereo unspecified)
selectivity ratio [2]: 28600 | CC50 at 72 h [7]: 200000 nM

CC(c1cc(O)nc(SC2CCCCC2)n1)c1c(F)cccc1F (stereo unspecified)
selectivity ratio [2]: > 6670 | CC50 at 72 h [7]: > 200000 nM

CCCCSc1nc(O)c(C)c(C(C)c2c(F)cccc2F)n1 (stereo unspecified)
selectivity ratio [2]: 14000 | CC50 at 72 h [7]: 112000 nM

CCC(C)Sc1nc(O)cc(C(C)c2c(F)cccc2F)n1 (stereo unspecified)
selectivity ratio [2]: > 6670 | CC50 at 72 h [7]: > 200000 nM

Cc1c(O)nc(SC2CCCCC2)nc1C(C)c1c(F)cccc1F (stereo unspecified)
selectivity ratio [2]: > 33300 | CC50 at 72 h [7]: > 200000 nM

CCC(C)Sc1nc(O)cc(Cc2c(F)cccc2F)n1 (stereo unspecified)
EC50 [4]: 40 nM | CC50 [5]: > 200000 nM | selectivity ratio [6]: > 5000 | CC50 at 72 h [7]: > 200000 nM
